In the kinase profiling compilation of Christmann-Franck et al. (2016):
Values belong to the molecule of their own block, whether it stands above or below them.

Key:
Experiment in all cases: radiometric filter-binding kinase assay
[1] = target: SRPK1 (human) (UniProt Q96SB4)
[2] = target: PRKCA (human) (UniProt P17252)
[3] = target: MAPK15 (human) (UniProt Q8TD08)
[4] = target: MKNK2 (human) (UniProt Q9HBH9)
[5] = target: MAPKAPK3 (human) (UniProt Q16644)
[6] = target: NEK6 (human) (UniProt Q9HC98)
[7] = target: MAPK11 (human) (UniProt Q15759)
[8] = target: MAPK14 (human) (UniProt Q16539)
Chain of MAPK14 (human) (Q16539 whole entry, looked up): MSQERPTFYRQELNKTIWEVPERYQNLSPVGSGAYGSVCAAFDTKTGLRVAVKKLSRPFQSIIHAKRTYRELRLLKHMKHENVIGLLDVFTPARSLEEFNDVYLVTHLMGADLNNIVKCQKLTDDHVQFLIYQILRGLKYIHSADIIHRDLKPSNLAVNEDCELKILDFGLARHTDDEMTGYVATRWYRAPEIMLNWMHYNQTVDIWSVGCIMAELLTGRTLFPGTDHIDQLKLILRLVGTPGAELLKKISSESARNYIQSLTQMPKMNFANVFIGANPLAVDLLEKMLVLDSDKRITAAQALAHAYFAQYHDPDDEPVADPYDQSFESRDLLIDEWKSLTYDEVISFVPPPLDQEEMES

[9] = target: DYRK2 (human) (UniProt Q92630)
[10] = target: MAPK1 (human) (UniProt P28482)
Chain of MAPK1 (human) (P28482 whole entry, looked up): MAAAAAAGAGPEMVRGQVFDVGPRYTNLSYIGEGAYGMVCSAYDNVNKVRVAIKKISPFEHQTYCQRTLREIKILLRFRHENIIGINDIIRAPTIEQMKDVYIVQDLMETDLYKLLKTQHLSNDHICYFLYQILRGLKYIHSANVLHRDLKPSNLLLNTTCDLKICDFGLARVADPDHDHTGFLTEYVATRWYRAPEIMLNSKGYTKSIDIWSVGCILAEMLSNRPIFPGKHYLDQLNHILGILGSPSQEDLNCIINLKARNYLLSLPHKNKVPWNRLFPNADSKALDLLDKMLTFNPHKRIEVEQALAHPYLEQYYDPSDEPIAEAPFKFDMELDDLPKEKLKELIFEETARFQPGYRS

[11] = target: NEK2 (human) (UniProt P51955)
[12] = target: CSNK2A1 (human) (UniProt P68400)
[13] = target: CSNK1D (human) (UniProt P48730)
[14] = system: AKT2 (human), P31751 [S474D]
[15] = target: RPS6KA5 KD1 KD2 (human) (UniProt O75582)
Chain of RPS6KA5 KD1 KD2 (human) (O75582 whole entry, looked up): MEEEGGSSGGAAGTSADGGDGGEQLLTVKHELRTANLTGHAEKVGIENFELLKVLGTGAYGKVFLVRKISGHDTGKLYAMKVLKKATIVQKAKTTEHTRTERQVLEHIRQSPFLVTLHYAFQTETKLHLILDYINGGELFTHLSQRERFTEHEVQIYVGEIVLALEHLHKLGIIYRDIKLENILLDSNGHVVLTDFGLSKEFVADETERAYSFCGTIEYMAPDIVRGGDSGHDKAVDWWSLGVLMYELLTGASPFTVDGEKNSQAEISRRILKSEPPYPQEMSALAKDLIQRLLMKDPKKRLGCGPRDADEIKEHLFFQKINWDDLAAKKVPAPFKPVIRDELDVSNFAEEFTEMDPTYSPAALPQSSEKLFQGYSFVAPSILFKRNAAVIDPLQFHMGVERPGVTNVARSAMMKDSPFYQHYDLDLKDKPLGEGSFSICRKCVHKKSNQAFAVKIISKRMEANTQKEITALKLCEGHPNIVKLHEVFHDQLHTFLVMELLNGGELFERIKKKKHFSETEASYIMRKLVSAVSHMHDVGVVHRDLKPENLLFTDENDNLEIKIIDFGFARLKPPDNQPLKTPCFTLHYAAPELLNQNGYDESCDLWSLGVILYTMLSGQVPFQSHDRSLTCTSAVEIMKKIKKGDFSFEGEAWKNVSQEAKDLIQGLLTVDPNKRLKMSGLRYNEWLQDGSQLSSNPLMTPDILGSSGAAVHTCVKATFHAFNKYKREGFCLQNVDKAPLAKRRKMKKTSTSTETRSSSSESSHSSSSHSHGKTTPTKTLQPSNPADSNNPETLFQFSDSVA

[16] = target: RPS6KA1 KD1 KD2 (human) (UniProt Q15418)
Chain of RPS6KA1 KD1 KD2 (human) (Q15418 whole entry, looked up): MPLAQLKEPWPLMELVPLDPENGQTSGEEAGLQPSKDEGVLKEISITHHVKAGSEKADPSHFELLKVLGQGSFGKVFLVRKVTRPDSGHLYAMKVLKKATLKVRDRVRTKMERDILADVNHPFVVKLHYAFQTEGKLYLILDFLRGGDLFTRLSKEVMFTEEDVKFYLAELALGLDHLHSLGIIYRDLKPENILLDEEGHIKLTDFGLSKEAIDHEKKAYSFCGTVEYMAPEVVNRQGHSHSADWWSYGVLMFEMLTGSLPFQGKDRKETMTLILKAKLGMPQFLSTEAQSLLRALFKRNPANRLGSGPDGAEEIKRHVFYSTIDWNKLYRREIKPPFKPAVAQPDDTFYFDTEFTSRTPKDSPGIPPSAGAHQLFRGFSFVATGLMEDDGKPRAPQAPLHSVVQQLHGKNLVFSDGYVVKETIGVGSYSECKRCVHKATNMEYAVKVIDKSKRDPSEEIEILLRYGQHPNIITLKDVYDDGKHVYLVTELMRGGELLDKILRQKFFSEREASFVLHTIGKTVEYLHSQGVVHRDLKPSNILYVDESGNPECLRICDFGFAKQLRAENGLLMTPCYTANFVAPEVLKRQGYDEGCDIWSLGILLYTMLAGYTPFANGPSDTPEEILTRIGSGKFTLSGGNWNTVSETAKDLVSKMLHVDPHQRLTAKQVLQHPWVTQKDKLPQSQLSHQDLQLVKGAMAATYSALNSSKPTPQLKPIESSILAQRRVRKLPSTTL

[17] = target: HIPK2 (human) (UniProt Q9H2X6)
Chain of HIPK2 (human) (Q9H2X6 whole entry, looked up): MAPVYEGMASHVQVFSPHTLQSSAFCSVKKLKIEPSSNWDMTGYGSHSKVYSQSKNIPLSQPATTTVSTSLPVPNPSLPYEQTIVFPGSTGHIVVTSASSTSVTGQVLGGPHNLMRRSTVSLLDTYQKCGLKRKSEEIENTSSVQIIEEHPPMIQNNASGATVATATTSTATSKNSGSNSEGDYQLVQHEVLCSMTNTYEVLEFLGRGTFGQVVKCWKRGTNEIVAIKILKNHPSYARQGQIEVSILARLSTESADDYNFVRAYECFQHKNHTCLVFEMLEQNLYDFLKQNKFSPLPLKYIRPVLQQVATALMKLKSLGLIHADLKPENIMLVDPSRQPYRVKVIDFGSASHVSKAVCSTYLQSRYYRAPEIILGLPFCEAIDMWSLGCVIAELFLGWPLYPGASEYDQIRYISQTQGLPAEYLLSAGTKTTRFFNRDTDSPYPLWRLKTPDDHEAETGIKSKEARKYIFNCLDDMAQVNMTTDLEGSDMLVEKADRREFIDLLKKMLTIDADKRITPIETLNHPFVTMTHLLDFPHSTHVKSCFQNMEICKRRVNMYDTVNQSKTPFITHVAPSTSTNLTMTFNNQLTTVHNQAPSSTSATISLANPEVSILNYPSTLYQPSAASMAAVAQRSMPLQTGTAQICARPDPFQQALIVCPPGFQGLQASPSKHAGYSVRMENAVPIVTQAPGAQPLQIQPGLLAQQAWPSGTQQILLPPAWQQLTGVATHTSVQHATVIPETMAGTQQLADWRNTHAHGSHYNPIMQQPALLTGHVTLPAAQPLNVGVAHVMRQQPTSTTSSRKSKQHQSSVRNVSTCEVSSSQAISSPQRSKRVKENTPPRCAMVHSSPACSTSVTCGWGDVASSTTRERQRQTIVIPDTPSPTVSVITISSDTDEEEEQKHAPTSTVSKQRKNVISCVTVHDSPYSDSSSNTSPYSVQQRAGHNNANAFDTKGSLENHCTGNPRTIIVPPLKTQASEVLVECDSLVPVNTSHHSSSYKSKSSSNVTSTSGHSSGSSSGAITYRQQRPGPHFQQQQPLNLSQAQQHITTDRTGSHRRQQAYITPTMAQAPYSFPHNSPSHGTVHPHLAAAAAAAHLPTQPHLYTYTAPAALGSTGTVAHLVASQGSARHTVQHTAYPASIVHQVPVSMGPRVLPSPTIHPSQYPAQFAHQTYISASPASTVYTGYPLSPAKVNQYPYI

[18] = system: RPS6KB1 (human), P23443 [T412E]
Chain of RPS6KB1 (human), P23443 [T412E] (P23443 whole entry T412E, looked up): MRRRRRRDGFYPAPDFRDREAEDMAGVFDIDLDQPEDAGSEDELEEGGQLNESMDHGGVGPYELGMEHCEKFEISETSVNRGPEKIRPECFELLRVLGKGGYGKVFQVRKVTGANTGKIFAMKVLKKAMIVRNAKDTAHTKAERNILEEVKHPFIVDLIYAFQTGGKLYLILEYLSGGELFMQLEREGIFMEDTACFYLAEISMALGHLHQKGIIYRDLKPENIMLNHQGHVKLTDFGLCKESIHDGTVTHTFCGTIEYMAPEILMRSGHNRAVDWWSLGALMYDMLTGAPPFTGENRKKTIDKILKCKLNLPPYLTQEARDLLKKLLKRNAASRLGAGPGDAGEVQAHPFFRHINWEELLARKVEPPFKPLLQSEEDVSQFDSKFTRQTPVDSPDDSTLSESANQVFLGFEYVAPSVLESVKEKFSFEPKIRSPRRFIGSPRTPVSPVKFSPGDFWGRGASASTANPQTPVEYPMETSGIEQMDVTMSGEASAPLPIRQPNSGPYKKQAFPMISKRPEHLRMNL

[19] = target: MARK3 (human) (UniProt P27448)

Chain of MKNK2 (human) (Q9HBH9 whole entry, looked up): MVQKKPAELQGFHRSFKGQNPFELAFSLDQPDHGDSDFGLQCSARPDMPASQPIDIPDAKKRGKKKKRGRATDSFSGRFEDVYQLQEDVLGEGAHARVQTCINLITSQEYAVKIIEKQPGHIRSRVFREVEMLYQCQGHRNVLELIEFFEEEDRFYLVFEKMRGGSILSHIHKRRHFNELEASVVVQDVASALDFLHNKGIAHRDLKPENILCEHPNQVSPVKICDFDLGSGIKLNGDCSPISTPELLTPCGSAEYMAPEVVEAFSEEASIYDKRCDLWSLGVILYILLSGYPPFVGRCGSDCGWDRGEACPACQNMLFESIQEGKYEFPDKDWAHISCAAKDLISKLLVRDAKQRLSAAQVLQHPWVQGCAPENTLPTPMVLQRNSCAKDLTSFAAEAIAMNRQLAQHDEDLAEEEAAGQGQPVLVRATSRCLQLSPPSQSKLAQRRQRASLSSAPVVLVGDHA
Chain of MAPK15 (human) (Q8TD08 whole entry, looked up): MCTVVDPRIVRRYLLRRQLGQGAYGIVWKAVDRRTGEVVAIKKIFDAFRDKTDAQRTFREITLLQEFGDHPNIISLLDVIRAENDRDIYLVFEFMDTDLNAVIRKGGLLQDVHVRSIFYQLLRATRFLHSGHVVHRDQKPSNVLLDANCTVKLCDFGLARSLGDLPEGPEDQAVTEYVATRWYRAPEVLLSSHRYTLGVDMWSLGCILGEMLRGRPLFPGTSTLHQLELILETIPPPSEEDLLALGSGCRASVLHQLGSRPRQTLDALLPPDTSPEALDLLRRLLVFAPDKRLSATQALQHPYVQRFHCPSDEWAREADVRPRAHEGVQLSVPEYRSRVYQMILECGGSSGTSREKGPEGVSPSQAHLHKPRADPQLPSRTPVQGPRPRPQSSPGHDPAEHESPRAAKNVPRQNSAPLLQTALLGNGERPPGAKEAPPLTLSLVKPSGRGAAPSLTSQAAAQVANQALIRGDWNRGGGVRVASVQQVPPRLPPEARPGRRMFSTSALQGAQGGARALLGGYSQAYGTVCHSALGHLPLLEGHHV

- residual activity ([1]; compound 1.0 µM): 107%
- residual activity ([1]; compound 10.0 µM): 98%
- residual activity ([2]; compound 1.0 µM): 102%
- residual activity ([2]; compound 10.0 µM): 117%
- residual activity ([4]; compound 1.0 µM): 103%
- residual activity ([4]; compound 10.0 µM): 76%
- residual activity ([5]; compound 1.0 µM): 91%
- residual activity ([5]; compound 10.0 µM): 130%
- residual activity ([6]; compound 1.0 µM): 73%
- residual activity ([6]; compound 10.0 µM): 81%
- residual activity ([7]; compound 1.0 µM): 131%
- residual activity ([7]; compound 10.0 µM): 111%
- residual activity ([8]; compound 1.0 µM): 118%
- residual activity ([8]; compound 10.0 µM): 122%
- residual activity ([9]; compound 1.0 µM): 93%
- residual activity ([9]; compound 10.0 µM): 89%
- residual activity ([10]; compound 1.0 µM): 116%
- residual activity ([10]; compound 10.0 µM): 111%
- residual activity ([11]; compound 1.0 µM): 107%
- residual activity ([11]; compound 10.0 µM): 115%
- residual activity ([12]; compound 1.0 µM): 93%
- residual activity ([12]; compound 10.0 µM): 93%
- residual activity ([13]; compound 1.0 µM): 77%
- residual activity ([13]; compound 10.0 µM): 87%
- residual activity ([14]; compound 1.0 µM): 95%
- residual activity ([14]; compound 10.0 µM): 100%
- residual activity ([15]; compound 1.0 µM): 92%
- residual activity ([15]; compound 10.0 µM): 100%
- residual activity ([16]; compound 1.0 µM): 108%
- residual activity ([16]; compound 10.0 µM): 101%
- residual activity ([17]; compound 1.0 µM): 124%
- residual activity ([17]; compound 10.0 µM): 125%
- residual activity ([18]; compound 1.0 µM): 127%
- residual activity ([18]; compound 10.0 µM): 137%
- residual activity ([19]; compound 1.0 µM): 89%
- residual activity ([19]; compound 10.0 µM): 94%
SMILES: Cc1cccc(Nc2nn(C)c3ncnc(N)c23)c1
- residual activity ([3]; compound 1.0 µM): 76%
- residual activity ([3]; compound 10.0 µM): 93%

- residual activity ([1]; compound 0.1 µM): 113%
- residual activity ([1]; compound 1.0 µM): 89%
- residual activity ([1]; compound 10.0 µM): 77%
- residual activity ([2]; compound 0.1 µM): 5%
- residual activity ([2]; compound 1.0 µM): 1%
- residual activity ([2]; compound 10.0 µM): 1%
- residual activity ([4]; compound 0.1 µM): 90%
- residual activity ([4]; compound 1.0 µM): 88%
- residual activity ([4]; compound 10.0 µM): 70%
- residual activity ([5]; compound 0.1 µM): 131%
- residual activity ([5]; compound 1.0 µM): 92%
- residual activity ([5]; compound 10.0 µM): 79%
- residual activity ([6]; compound 0.1 µM): 99%
- residual activity ([6]; compound 1.0 µM): 87%
- residual activity ([6]; compound 10.0 µM): 84%
- residual activity ([7]; compound 0.1 µM): 119%
- residual activity ([7]; compound 1.0 µM): 102%
- residual activity ([7]; compound 10.0 µM): 95%
- residual activity ([8]; compound 0.1 µM): 107%
- residual activity ([8]; compound 1.0 µM): 106%
- residual activity ([8]; compound 10.0 µM): 86%
- residual activity ([9]; compound 0.1 µM): 98%
- residual activity ([9]; compound 1.0 µM): 65%
- residual activity ([9]; compound 10.0 µM): 70%
- residual activity ([10]; compound 0.1 µM): 114%
- residual activity ([10]; compound 1.0 µM): 110%
- residual activity ([10]; compound 10.0 µM): 106%
- residual activity ([11]; compound 0.1 µM): 95%
- residual activity ([11]; compound 1.0 µM): 80%
- residual activity ([11]; compound 10.0 µM): 59%
- residual activity ([12]; compound 0.1 µM): 105%
- residual activity ([12]; compound 1.0 µM): 83%
- residual activity ([12]; compound 10.0 µM): 71%
- residual activity ([13]; compound 0.1 µM): 103%
- residual activity ([13]; compound 1.0 µM): 83%
- residual activity ([13]; compound 10.0 µM): 68%
- residual activity ([14]; compound 0.1 µM): 80%
- residual activity ([14]; compound 1.0 µM): 44%
- residual activity ([14]; compound 10.0 µM): 13%
- residual activity ([15]; compound 0.1 µM): 11%
- residual activity ([15]; compound 1.0 µM): 3%
- residual activity ([15]; compound 10.0 µM): 3%
- residual activity ([16]; compound 0.1 µM): 10%
- residual activity ([16]; compound 1.0 µM): 5%
- residual activity ([16]; compound 10.0 µM): 5%
- residual activity ([17]; compound 0.1 µM): 97%
- residual activity ([17]; compound 1.0 µM): 55%
- residual activity ([17]; compound 10.0 µM): 24%
- residual activity ([18]; compound 0.1 µM): 11%
- residual activity ([18]; compound 1.0 µM): 2%
- residual activity ([18]; compound 10.0 µM): 1%
- residual activity ([19]; compound 0.1 µM): 93%
- residual activity ([19]; compound 1.0 µM): 68%
- residual activity ([19]; compound 10.0 µM): 33%
SMILES: COc1ccc2c(c1)c1c3c(c4c5ccccc5n(C)c4c1n2CC(O)CN(C)C)C(=O)NC3=O (stereo not drawn)
- residual activity ([3]; compound 0.1 µM): 78%
- residual activity ([3]; compound 1.0 µM): 53%
- residual activity ([3]; compound 10.0 µM): 54%

- residual activity ([1]; compound 1.0 µM): 137%
- residual activity ([1]; compound 10.0 µM): 129%
- residual activity ([2]; compound 1.0 µM): 120%
- residual activity ([2]; compound 10.0 µM): 121%
- residual activity ([4]; compound 1.0 µM): 104%
- residual activity ([4]; compound 10.0 µM): 103%
- residual activity ([5]; compound 1.0 µM): 137%
- residual activity ([5]; compound 10.0 µM): 132%
- residual activity ([6]; compound 1.0 µM): 95%
- residual activity ([6]; compound 10.0 µM): 95%
- residual activity ([7]; compound 1.0 µM): 132%
- residual activity ([7]; compound 10.0 µM): 127%
- residual activity ([8]; compound 1.0 µM): 93%
- residual activity ([8]; compound 10.0 µM): 80%
- residual activity ([9]; compound 1.0 µM): 86%
- residual activity ([9]; compound 10.0 µM): 83%
- residual activity ([10]; compound 1.0 µM): 107%
- residual activity ([10]; compound 10.0 µM): 110%
- residual activity ([11]; compound 1.0 µM): 102%
- residual activity ([11]; compound 10.0 µM): 100%
- residual activity ([12]; compound 1.0 µM): 91%
- residual activity ([12]; compound 10.0 µM): 96%
- residual activity ([13]; compound 1.0 µM): 97%
- residual activity ([13]; compound 10.0 µM): 62%
- residual activity ([14]; compound 1.0 µM): 103%
- residual activity ([14]; compound 10.0 µM): 103%
- residual activity ([15]; compound 1.0 µM): 97%
- residual activity ([15]; compound 10.0 µM): 84%
- residual activity ([16]; compound 1.0 µM): 121%
- residual activity ([16]; compound 10.0 µM): 102%
- residual activity ([17]; compound 1.0 µM): 113%
- residual activity ([17]; compound 10.0 µM): 105%
- residual activity ([18]; compound 1.0 µM): 114%
- residual activity ([18]; compound 10.0 µM): 114%
- residual activity ([19]; compound 1.0 µM): 82%
- residual activity ([19]; compound 10.0 µM): 79%
SMILES: Cn1nc(Nc2ccc(F)cc2)c2c(N)ncnc21
- residual activity ([3]; compound 1.0 µM): 76%
- residual activity ([3]; compound 10.0 µM): 70%
